Measurements as given in PubChem BioAssay AID270 (DTP/NCI, 2004).
Values joined by “and” are separate entries in the source; they are usually repeats but may differ in a detail not shown here. Equal entries are not always repeated. Inconclusive results are not listed.

Test system: BDF1 mice, s.c. Lewis lung carcinoma, T/C %
Test: NCI In Vivo Anticancer Drug Screen. Data for tumor model Lewis Lung Carcinoma (subcutaneous) in B6D2F1 (BDF1) mice
Method in brief: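 Readout: survival or tumor size, expressed as treated (T) over vehicle control (C). Transplantable tumor implanted in mice; compound given to the treated group.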

Nc1nc(N)c(N=O)c(Nc2ccc(Br)cc2)n1
T/C (endpoint: mean tumor weight, dose: 10.0 mg/kg/injection, schedule: Q01DX011 (ip), vehicle: other, higher = larger tumour): 76 % of control | T/C (endpoint: mean tumor weight, dose: 20.0 mg/kg/injection, schedule: Q01DX011 (ip), vehicle: other, higher = larger tumour): 114 % of control | T/C (endpoint: mean tumor weight, dose: 40.0 mg/kg/injection, schedule: Q01DX011 (ip), vehicle: other, higher = larger tumour): 70 % of control | T/C (endpoint: mean tumor weight, dose: 80.0 mg/kg/injection, schedule: Q01DX011 (ip), vehicle: other, higher = larger tumour): 44 % of control and 45 % of control | T/C (endpoint: mean tumor weight, dose: 160.0 mg/kg/injection, schedule: Q01DX011 (ip), vehicle: other, higher = larger tumour): 47 % of control | T/C (endpoint: mean tumor weight, dose: 320.0 mg/kg/injection, schedule: Q01DX011 (ip), vehicle: other, higher = larger tumour): 62 % of control

O=C1C=CC(=Nc2ccc(O)c3ncccc23)c2cccnc21
T/C (endpoint: mean tumor weight, dose: 12.5 mg/kg/injection, schedule: Q01DX011 (ip), vehicle: saline, higher = larger tumour): 94 % of control | T/C (endpoint: mean tumor weight, dose: 25.0 mg/kg/injection, schedule: Q01DX011 (ip), vehicle: saline, higher = larger tumour): 49 % of control | T/C (endpoint: mean tumor weight, dose: 50.0 mg/kg/injection, schedule: Q01DX011 (ip), vehicle: saline, higher = larger tumour): 26 % of control

OCC1OC(n2cnc3c2NC=NC[C@H]3O)CC1O (some centres not stated)
T/C (endpoint: median survival time, dose: 0.05 mg/kg/injection, schedule: Q03HX024 (ip), vehicle: saline, higher = longer survival): 110 % of control | T/C (endpoint: median survival time, dose: 0.1 mg/kg/injection, schedule: Q03HX024 (ip), vehicle: saline, higher = longer survival): 86 % of control | T/C (endpoint: median survival time, dose: 0.4 mg/kg/injection, schedule: Q03HX024 (ip), vehicle: saline, higher = longer survival): 90 % of control

O=NN(CCCl)C(=O)NC1CCCCC1
T/C (endpoint: median survival time, dose: 0.12 mg/kg/injection, schedule: Q08HX024 (ip), vehicle: Klucel (hydroxypropylcellulose) (HPC), higher = longer survival): 91 % of control | T/C (endpoint: median survival time, dose: 0.12 mg/kg/injection, schedule: Q08HX024 (ip), vehicle: saline, higher = longer survival): 181 % of control | T/C (endpoint: median survival time, dose: 0.25 mg/kg/injection, schedule: Q08HX024 (ip), vehicle: Klucel (hydroxypropylcellulose) (HPC), higher = longer survival): 106 % of control and 111 % of control | T/C (endpoint: median survival time, dose: 0.25 mg/kg/injection, schedule: Q08HX024 (ip), vehicle: saline, higher = longer survival): 182 % of control | T/C (endpoint: median survival time, dose: 0.5 mg/kg/injection, schedule: Q08HX024 (ip), vehicle: Klucel (hydroxypropylcellulose) (HPC), higher = longer survival): 103 % of control and 115 % of control | T/C (endpoint: median survival time, dose: 0.5 mg/kg/injection, schedule: Q08HX024 (ip), vehicle: saline, higher = longer survival): 103 % of control | T/C (endpoint: median survival time, dose: 1.0 mg/kg/injection, schedule: Q08HX024 (ip), vehicle: Klucel (hydroxypropylcellulose) (HPC), higher = longer survival): 119 % of control | T/C (endpoint: median survival time, dose: 1.0 mg/kg/injection, schedule: Q08HX024 (ip), vehicle: saline, higher = longer survival): 91 % of control | T/C (endpoint: median survival time, dose: 2.4 mg/kg/injection, schedule: Q01DX001 (ip), vehicle: other, higher = longer survival): 120 % of control | T/C (endpoint: median survival time, dose: 4.0 mg/kg/injection, schedule: Q01DX009 (ip), vehicle: saline with Tween-80, higher = longer survival): 112 % of control | T/C (endpoint: median survival time, dose: 4.7 mg/kg/injection, schedule: Q01DX001 (ip), vehicle: other, higher = longer survival): 109 % of control | T/C (endpoint: median survival time, dose: 5.0 mg/kg/injection, schedule: Q01DX001 (ip), vehicle: Klucel (hydroxypropylcellulose) (HPC), higher = longer survival): 95 % of control and 106 % of control and 123 % of control | T/C (endpoint: median survival time, dose: 8.0 mg/kg/injection, schedule: Q01DX009 (ip), vehicle: saline with Tween-80, higher = longer survival): 120 % of control | T/C (endpoint: median survival time, dose: 9.5 mg/kg/injection, schedule: Q01DX001 (ip), vehicle: other, higher = longer survival): 105 % of control | T/C (endpoint: median survival time, dose: 10.0 mg/kg/injection, schedule: Q01DX001 (ip), vehicle: Klucel (hydroxypropylcellulose) (HPC), higher = longer survival): 86 % of control and 91 % of control and 111 % of control | T/C (endpoint: median survival time, dose: 12.5 mg/kg/injection, schedule: Q01DX001 (ip), vehicle: Klucel (hydroxypropylcellulose) (HPC), higher = longer survival): 93 % of control and 113 % of control | T/C (endpoint: median survival time, dose: 12.5 mg/kg/injection, schedule: Q01DX001 (ip), vehicle: saline with Tween-80, higher = longer survival): 158 % of control | T/C (endpoint: median survival time, dose: 18.9 mg/kg/injection, schedule: Q01DX001 (ip), vehicle: other, higher = longer survival): 150 % of control | T/C (endpoint: median survival time, dose: 20.0 mg/kg/injection, schedule: Q01DX001 (ip), vehicle: Klucel (hydroxypropylcellulose) (HPC), higher = longer survival): 97 % of control and 115 % of control | T/C (endpoint: median survival time, dose: 25.0 mg/kg/injection, schedule: Q01DX001 (ip), vehicle: Klucel (hydroxypropylcellulose) (HPC), higher = longer survival): 108 % of control | T/C (endpoint: median survival time, dose: 27.0 mg/kg/injection, schedule: Q11DX002 (ip), vehicle: Klucel (hydroxypropylcellulose) (HPC), higher = longer survival): 111 % of control | T/C (endpoint: median survival time, dose: 32.0 mg/kg/injection, schedule: Q01DX009 (ip), vehicle: Klucel (hydroxypropylcellulose) (HPC), higher = longer survival): 94 % of control | T/C (endpoint: median survival time, dose: 33.0 mg/kg/injection, schedule: Q01DX001 (ip), vehicle: carboxymethylcellulose (CMC), higher = longer survival): 102 % of control | T/C (endpoint: median survival time, dose: 33.0 mg/kg/injection, schedule: Q06DX002 (ip), vehicle: carboxymethylcellulose (CMC), higher = longer survival): 180 % of control | T/C (endpoint: median survival time, dose: 33.0 mg/kg/injection, schedule: Q08DX002 (ip), vehicle: carboxymethylcellulose (CMC), higher = longer survival): 100 % of control | T/C (endpoint: median survival time, dose: 33.0 mg/kg/injection, schedule: Q12DX002 (ip), vehicle: carboxymethylcellulose (CMC), higher = longer survival): 102 % of control | T/C (endpoint: median survival time, dose: 37.8 mg/kg/injection, schedule: Q01DX001 (ip), vehicle: other, higher = longer survival): 160 % of control | T/C (endpoint: median survival time, dose: 40.0 mg/kg/injection, schedule: Q11DX002 (ip), vehicle: Klucel (hydroxypropylcellulose) (HPC), higher = longer survival): 79 % of control and 97 % of control | T/C (endpoint: median survival time, dose: 40.0 mg/kg/injection, schedule: Q11DX002 (oral), vehicle: Klucel (hydroxypropylcellulose) (HPC), higher = longer survival): 86 % of control | T/C (endpoint: median survival time, dose: 50.0 mg/kg/injection, schedule: Q01DX001 (ip), vehicle: Klucel (hydroxypropylcellulose) (HPC), higher = longer survival): 67 % of control | T/C (endpoint: median survival time, dose: 50.0 mg/kg/injection, schedule: Q01DX001 (ip), vehicle: carboxymethylcellulose (CMC), higher = longer survival): 100 % of control | T/C (endpoint: median survival time, dose: 50.0 mg/kg/injection, schedule: Q06DX002 (ip), vehicle: carboxymethylcellulose (CMC), higher = longer survival): 151 % of control | T/C (endpoint: median survival time, dose: 50.0 mg/kg/injection, schedule: Q08DX002 (ip), vehicle: carboxymethylcellulose (CMC), higher = longer survival): 92 % of control | T/C (endpoint: median survival time, dose: 50.0 mg/kg/injection, schedule: Q10DX002 (ip), vehicle: carboxymethylcellulose (CMC), higher = longer survival): 103 % of control | T/C (endpoint: median survival time, dose: 50.0 mg/kg/injection, schedule: Q12DX002 (ip), vehicle: carboxymethylcellulose (CMC), higher = longer survival): 115 % of control | T/C (endpoint: median survival time, dose: 60.0 mg/kg/injection, schedule: Q11DX002 (ip), vehicle: Klucel (hydroxypropylcellulose) (HPC), higher = longer survival): 53 % of control and 113 % of control | T/C (endpoint: median survival time, dose: 60.0 mg/kg/injection, schedule: Q11DX002 (oral), vehicle: Klucel (hydroxypropylcellulose) (HPC), higher = longer survival): 90 % of control | T/C (endpoint: median survival time, dose: 75.7 mg/kg/injection, schedule: Q01DX001 (ip), vehicle: other, higher = longer survival): 124 % of control | T/C (endpoint: median survival time, dose: 80.0 mg/kg/injection, schedule: Q01DX001 (ip), vehicle: Klucel (hydroxypropylcellulose) (HPC), higher = longer survival): 112 % of control | T/C (endpoint: median survival time, dose: 90.0 mg/kg/injection, schedule: Q11DX002 (oral), vehicle: Klucel (hydroxypropylcellulose) (HPC), higher = longer survival): 75 % of control | T/C (endpoint: median survival time, dose: 100.0 mg/kg/injection, schedule: Q01DX001 (ip), vehicle: saline with Tween-80, higher = longer survival): 154 % of control | T/C (endpoint: median survival time, dose: 160.0 mg/kg/injection, schedule: Q01DX001 (ip), vehicle: Klucel (hydroxypropylcellulose) (HPC), higher = longer survival): 110 % of control | T/C (endpoint: median tumor weight (est.), dose: 4.0 mg/kg/injection, schedule: Q01DX009 (ip), vehicle: Klucel (hydroxypropylcellulose) (HPC), higher = larger tumour): 66 % of control | T/C (endpoint: median tumor weight (est.), dose: 8.0 mg/kg/injection, schedule: Q01DX009 (ip), vehicle: Klucel (hydroxypropylcellulose) (HPC), higher = larger tumour): 46 % of control | T/C (endpoint: median tumor weight (est.), dose: 12.5 mg/kg/injection, schedule: Q01DX001 (ip), vehicle: Klucel (hydroxypropylcellulose) (HPC), higher = larger tumour): 88 % of control | T/C (endpoint: median tumor weight (est.), dose: 16.0 mg/kg/injection, schedule: Q01DX009 (ip), vehicle: Klucel (hydroxypropylcellulose) (HPC), higher = larger tumour): 3 % of control | T/C (endpoint: median tumor weight (est.), dose: 19.0 mg/kg/injection, schedule: Q01DX001 (ip), vehicle: carboxymethylcellulose (CMC), higher = larger tumour): 72 % of control | T/C (endpoint: median tumor weight (est.), dose: 25.0 mg/kg/injection, schedule: Q01DX001 (ip), vehicle: Klucel (hydroxypropylcellulose) (HPC), higher = larger tumour): 48 % of control | T/C (endpoint: median tumor weight (est.), dose: 38.0 mg/kg/injection, schedule: Q01DX001 (ip), vehicle: carboxymethylcellulose (CMC), higher = larger tumour): 46 % of control | T/C (endpoint: median tumor weight (est.), dose: 57.0 mg/kg/injection, schedule: Q01DX001 (ip), vehicle: carboxymethylcellulose (CMC), higher = larger tumour): 34 % of control
